Test results taken from publication PMC11995724, “Antibiotic target discovery by integrated phenotypic and activity-based profiling of electrophilic fragments” (Cell chemical biology, 2025).
Counter-ions that a name gives are not always drawn.

Assay: in vitro
Conditions: human, hek293t cells

Row | SMILES | viability at 48 h, 25 µM [%]
1 | Cc1cccc(Cc2cnc(NC(=O)C(C)Cl)s2)c1 (stereo not drawn) [4-D19, 2-chloro-N-{5-[(3-methylphenyl)methyl]-1,3-thiazol-2-yl}propanamide] | 74.1
2 | CC(Cl)C(=O)NCC(=O)Nc1ccc(F)c(F)c1F (stereo not drawn) [4-D20, 2-chloro-N-{[(2,3,4-trifluorophenyl)carbamoyl]methyl}propanamide] | 118
3 | Cc1cccc(NC(=O)NC(=O)CCl)c1C [4-D21, 3-(2-chloroacetyl)-1-(2,3-dimethylphenyl)urea] | 0.759
4 | O=C(CCl)NCc1cccc(NC(=O)C2CC2)c1 [4-D22, N-{3-[(2-chloroacetamido)methyl]phenyl}cyclopropanecarboxamide] | 1.24
5 | O=C(CCl)Nc1ccc(Cl)cc1F [4-E03, 2-chloro-N-(4-chloro-2-fluorophenyl)acetamide] | 0.433
6 | CC(C)CNC(=O)c1ccccc1NC(=O)CCl [4-E04, 2-(2-chloroacetamido)-N-(2-methylpropyl)benzamide] | 0.855
7 | COc1ccc(S(=O)(=O)N(C)C)cc1NC(=O)CCl [4-E05, 2-chloro-N-[5-(dimethylsulfamoyl)-2-methoxyphenyl]acetamide] | 0.891
8 | CN(C(=O)CCl)c1c(N)n(Cc2ccccc2)c(=O)[nH]c1=O [4-E06, N-(6-amino-1-benzyl-2,4-dioxo-1,2,3,4-tetrahydropyrimidin-5-yl)-2-chloro-N-methylacetamide] | 22.8
9 | Cc1c(NC(=O)CCl)cccc1[N+](=O)[O-] [4-E07, 2-chloro-N-(2-methyl-3-nitrophenyl)acetamide] | 1.23
10 | CC(Cl)C(=O)Nc1nc(-c2cccc([N+](=O)[O-])c2)cs1 (stereo not drawn) [4-E08, 2-chloro-N-[4-(3-nitrophenyl)-1,3-thiazol-2-yl]propanamide] | 59.7
11 | CCN(CC)S(=O)(=O)c1cc(NC(=O)CCl)ccc1C [4-E09, 2-chloro-N-[3-(diethylsulfamoyl)-4-methylphenyl]acetamide] | 0.544
12 | CSC1=C(C#N)C2(CCCCC2)C(C#N)=C(NC(=O)CCl)N1 [4-E10, 2-chloro-N-[1,5-dicyano-4-(methylsulfanyl)-3-azaspiro[5.5]undeca-1,4-dien-2-yl]acetamide] | 0.534
13 | CSc1ccccc1NC(=O)CCl [4-E11, 2-chloro-N-[2-(methylsulfanyl)phenyl]acetamide] | 0.595
14 | CCn1c2ccccc2c2cc(NC(=O)C(C)Cl)ccc21 (stereo not drawn) [4-E12, 2-chloro-N-(9-ethyl-9H-carbazol-3-yl)propanamide] | 55.6
15 | CC(C)C(NC(=O)CCl)c1ccc(F)cc1 (stereo not drawn) [4-E13, 2-chloro-N-[1-(4-fluorophenyl)-2-methylpropyl]acetamide] | 1.68
16 | CC(Cl)C(=O)N1CCN(c2ccccc2)CC1 (stereo not drawn) [4-E14, 2-chloro-1-(4-phenylpiperazin-1-yl)propan-1-one hydrochloride] | 66.3
17 | COc1ccc(NC(=O)CCl)cc1S(=O)(=O)N(C)C [4-E15, 2-chloro-N-[3-(dimethylsulfamoyl)-4-methoxyphenyl]acetamide] | 0.774
18 | O=C(CCl)N1CCCSc2ccccc21 [4-E16, 2-chloro-1-(2,3,4,5-tetrahydro-1,5-benzothiazepin-5-yl)ethan-1-one] | 0.703
19 | CCOC(=O)c1ccc(NC(=O)CCl)cc1 [4-E17, ethyl 4-(2-chloroacetamido)benzoate] | 0.753
20 | O=C(CCl)NS(=O)(=O)c1ccc(Cl)cc1 [4-E18, 2-chloro-N-(4-chlorobenzenesulfonyl)acetamide] | 79.9

Row | SMILES | viability at 48 h, 25 µM [%]
21 | CN(CC(=O)Nc1ccc(Cl)c(C(F)(F)F)c1)C(=O)CCl [4-E19, 2-chloro-N-({[4-chloro-3-(trifluoromethyl)phenyl]carbamoyl}methyl)-N-methylacetamide] | 0.379
22 | COC(=O)c1c(NC(=O)CCl)sc(Cl)c1-c1ccccc1 [4-E20, methyl 5-chloro-2-(2-chloroacetamido)-4-phenylthiophene-3-carboxylate] | 0.576
23 | CC(C)OC(=O)c1c(NC(=O)CCl)sc2c1CCCC2 [4-E21, propan-2-yl 2-(2-chloroacetamido)-4,5,6,7-tetrahydro-1-benzothiophene-3-carboxylate] | 112
24 | O=C(CCl)N1N=C(c2cccc(F)c2)CC1c1cccs1 (stereo not drawn) [4-E22, 2-chloro-1-[3-(3-fluorophenyl)-5-(thiophen-2-yl)-4,5-dihydro-1H-pyrazol-1-yl]ethan-1-one] | 0.0972
25 | COc1ccc(CN(C)C(=O)CCl)cc1F [4-F03, 2-chloro-N-[(3-fluoro-4-methoxyphenyl)methyl]-N-methylacetamide] | 0.725
26 | CCc1cccc(NC(=O)CCl)c1 [4-F04, 2-chloro-N-(3-ethylphenyl)acetamide] | 0.569
27 | CC(=O)c1cccc(S(=O)(=O)N2CCN(C(=O)CCl)CC2)c1 [4-F05, 1-[4-(3-acetylbenzenesulfonyl)piperazin-1-yl]-2-chloroethan-1-one] | 0.228
28 | CC(C)c1ccccc1NC(=O)CCl [4-F06, 2-chloro-N-[2-(propan-2-yl)phenyl]acetamide] | 1.92
29 | COC(=O)c1c(-c2ccccc2Cl)csc1NC(=O)CCl [4-F07, methyl 2-(2-chloroacetamido)-4-(2-chlorophenyl)thiophene-3-carboxylate] | 5.7
30 | O=C(CCl)Nc1ccc(S(=O)(=O)N2CCCC2)cc1 [4-F08, 2-chloro-N-[4-(pyrrolidine-1-sulfonyl)phenyl]acetamide] | 1.07
31 | O=C(CCl)Nc1cc(S(=O)(=O)N2CCCCC2)ccc1Cl [4-F09, 2-chloro-N-[2-chloro-5-(piperidine-1-sulfonyl)phenyl]acetamide] | 0.505
32 | CCc1cccc(CC)c1NC(=O)CCl [4-F10, 2-chloro-N-(2,6-diethylphenyl)acetamide] | 99.1
33 | O=C(CCl)N(CC1=CCSC1)c1ccccc1 [4-F11, 2-chloro-N-[(2,5-dihydrothiophen-3-yl)methyl]-N-phenylacetamide] | 0.548
34 | COc1ccc(-c2csc(NC(=O)CCl)n2)c(OC)c1 [4-F12, 2-chloro-N-[4-(2,4-dimethoxyphenyl)-1,3-thiazol-2-yl]acetamide] | 0.886
35 | CC(Cl)C(=O)NCC1COc2ccccc2O1 (stereo not drawn) [4-F13, 2-chloro-N-[(2,3-dihydro-1,4-benzodioxin-2-yl)methyl]propanamide] | 91.4
36 | O=C(CCl)Nc1ccc(OC(F)F)c(Cl)c1 [4-F14, 2-chloro-N-[3-chloro-4-(difluoromethoxy)phenyl]acetamide] | 0.982
37 | O=C(CCl)Nc1nnc(SCc2ccccc2)s1 [4-F15, N-[5-(benzylsulfanyl)-1,3,4-thiadiazol-2-yl]-2-chloroacetamide] | 0.76
38 | O=C(CCl)N1CCN(CC=Cc2ccccc2)CC1 [4-F16, 2-chloro-1-[4-(3-phenylprop-2-en-1-yl)piperazin-1-yl]ethan-1-one hydrochloride] | 0.223
39 | COc1ccc(Cc2cnc(NC(=O)CCl)s2)cc1 [4-F17, 2-chloro-N-{5-[(4-methoxyphenyl)methyl]-1,3-thiazol-2-yl}acetamide] | -0.0636
